Test results: patent US7547763B2, “Sequences of an Ih ion channel and use thereof” (Forschungszentrum Julich GmbH, priority 1998, dated 2009)
One block for each molecule: values may come before it.

Key:
[1] = system: SPIH channel; test: Blockade of the SPIH channel by extracellular Cs+ on outside-out membrane patches; format: cell-based, Strongylocentrotus purpuratus
Method: (§1) cDNA coding the SPIH polypeptide was transiently expressed in HEK293 cells, as described earlier (Baumann et al, 1994). SPIH-controlled currents were recorded with the patch-clamp method in the whole-cell configuration and cell-free membrane patches. The composition of various bath and pipette solutions is indicated in the legends of the figures (see below). The channels were activated by stepping the membrane voltage from +10 mV to various negative voltage values. Leakage currents were subtracted using a P/8 protocol. The voltage dependence of the probability that the channel is open was determined from tail currents at +10 mV. The blockade of the SPIH channel by Cs2+ was analyzed with outside-out membrane patches in the presence of 1 mM cAPM in a pipette solution. The solutions in the bath contained 0.03 to 10 mM CsCl. Relative ion permeabilities were calculated from the respective shift of Vrev, which was measured on cell-free inside-out membrane patches, when 100 mM K^+ in the bath had been replaced by Na^+, Li^+, Rb^+ or Cs^+.

[2] = target: T1, SPIH channel (Strongylocentrotus purpuratus, UniProt O76977); test: Patch-clamp of SPIH currents on excised inside-out membrane patches of transfected HEK293 cells, modulation by cyclic nucleotides; format: cell-based
T1 sequence (O76977 1-767): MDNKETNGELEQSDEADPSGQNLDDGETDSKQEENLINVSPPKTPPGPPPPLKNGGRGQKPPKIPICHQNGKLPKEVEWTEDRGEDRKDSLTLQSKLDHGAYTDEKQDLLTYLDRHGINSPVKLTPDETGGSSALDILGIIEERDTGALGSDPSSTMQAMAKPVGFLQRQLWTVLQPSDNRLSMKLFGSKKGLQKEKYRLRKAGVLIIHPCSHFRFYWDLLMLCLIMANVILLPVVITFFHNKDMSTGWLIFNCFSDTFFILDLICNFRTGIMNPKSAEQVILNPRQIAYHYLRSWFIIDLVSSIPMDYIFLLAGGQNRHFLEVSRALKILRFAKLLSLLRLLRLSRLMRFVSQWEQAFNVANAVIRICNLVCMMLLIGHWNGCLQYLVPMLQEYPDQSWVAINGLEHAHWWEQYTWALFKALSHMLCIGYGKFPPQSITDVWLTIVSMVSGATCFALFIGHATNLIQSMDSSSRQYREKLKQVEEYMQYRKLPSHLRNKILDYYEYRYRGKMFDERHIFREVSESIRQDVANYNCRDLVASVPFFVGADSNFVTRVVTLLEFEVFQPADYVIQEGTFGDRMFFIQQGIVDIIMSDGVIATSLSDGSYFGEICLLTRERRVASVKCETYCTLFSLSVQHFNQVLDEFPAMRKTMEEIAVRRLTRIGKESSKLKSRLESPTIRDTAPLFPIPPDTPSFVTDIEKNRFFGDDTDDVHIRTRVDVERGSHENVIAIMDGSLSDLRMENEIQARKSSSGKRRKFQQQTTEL
Method: as §1

[3] = system: SPIH channel; test: Whole-cell patch-clamp of SPIH currents in transfected HEK293 cells, cyclic nucleotides or caged derivatives in the pipette; format: cell-based, Strongylocentrotus purpuratus
Method: as §1, with “The voltage dependence of the probability that the channel is open was determined from tail currents at +10 mV. The blockade of the SPIH channel by Cs2+ was analyzed with outside-out membrane patches in the presence of 1 mM cAPM in a pipette solution.” left out, “Cs^+. […] The voltage-step protocol is the same as in FIG. 2A. The bath contained (mM): 135 NaCl, 5 KCl, 1.8 CaCl2, 2.8 MgCl2 and 5 Hepes-NaOH at pH 7.4; the pipette solution contained […]” for “Cs^+.”

- Ki ([1]; at −70 mV, 1 mM cAMP in pipette, Hill fit, read-out: inhibitory constant Ki for block of standardized current I/Imax): 245 µM
Compound: [Cs+] [Cs^+]
- effect on currents ([1]; 10 mM Cs+ in the bath): inward currents disappeared completely

- enhancement of the amplitudes of the voltage-activated currents ([2]; 1 mM cAMP, excised membrane patches): up to 20 fold
- Hill coefficient n of the cAMP dependence of the SPIH current ([2]; inside-out patches, fit of Hill equation, mean of 10 experiments): 1.05
- V1/2 of voltage dependence of Po ([2]; inside-out-patch tail currents, 1 mM cAMP in bath, Boltzmann fit): −84.7 mV
Compound: Nc1ncnc2c1ncn2[C@@H]1O[C@@H]2COP(=O)(O)O[C@H]2[C@H]1O [cAMP]
- V1/2 of voltage dependence of Po ([3]; whole-cell tail currents, 1 mM cAMP in pipette, Boltzmann fit): −50.8 mV

Compound: Nc1nc2c(ncn2[C@@H]2O[C@@H]3COP(=O)(O)O[C@H]3[C@H]2O)c(=O)[nH]1 [cGMP]
- effect on amplitude of the SPIH currents ([2]; cGMP concentrations of up to 1 mM, excised membrane patches): did not change the amplitude of the SPIH currents
- effect on SPIH-induced whole-cell currents ([3]; 1 mM in the pipette): also changed the SPIH-induced currents
